Source: ChEMBL document CHEMBL1201862, “PubChem BioAssay data set” (2004)
Active and inactive are the calls of the source. Rule as the data show it, for most assays here: actives have a measured IC50 and inactives only a lower limit.

Tests used:
[1] = target: T1, Ubiquitin-conjugating enzyme E2 N (Homo sapiens, UniProt P61088); assay type: functional;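 also: Dose-response confirmation in a TR-FRET assay detecting UBC13-driven polyubiquitin chain formation, inhibition measured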
T1 sequence (P61088 whole entry): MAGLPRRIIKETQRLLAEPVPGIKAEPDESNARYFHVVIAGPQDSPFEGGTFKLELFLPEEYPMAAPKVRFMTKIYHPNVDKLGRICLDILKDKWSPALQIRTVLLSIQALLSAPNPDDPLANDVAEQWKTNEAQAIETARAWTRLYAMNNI

[2] = target: Heat shock protein HSP 90-alpha (Homo sapiens, UniProt P07900); assay type: functional, organism-based
[3] = target: T2, Apoptotic protease-activating factor 1 (Homo sapiens, UniProt O14727); assay type: functional
T2 sequence (O14727 whole entry): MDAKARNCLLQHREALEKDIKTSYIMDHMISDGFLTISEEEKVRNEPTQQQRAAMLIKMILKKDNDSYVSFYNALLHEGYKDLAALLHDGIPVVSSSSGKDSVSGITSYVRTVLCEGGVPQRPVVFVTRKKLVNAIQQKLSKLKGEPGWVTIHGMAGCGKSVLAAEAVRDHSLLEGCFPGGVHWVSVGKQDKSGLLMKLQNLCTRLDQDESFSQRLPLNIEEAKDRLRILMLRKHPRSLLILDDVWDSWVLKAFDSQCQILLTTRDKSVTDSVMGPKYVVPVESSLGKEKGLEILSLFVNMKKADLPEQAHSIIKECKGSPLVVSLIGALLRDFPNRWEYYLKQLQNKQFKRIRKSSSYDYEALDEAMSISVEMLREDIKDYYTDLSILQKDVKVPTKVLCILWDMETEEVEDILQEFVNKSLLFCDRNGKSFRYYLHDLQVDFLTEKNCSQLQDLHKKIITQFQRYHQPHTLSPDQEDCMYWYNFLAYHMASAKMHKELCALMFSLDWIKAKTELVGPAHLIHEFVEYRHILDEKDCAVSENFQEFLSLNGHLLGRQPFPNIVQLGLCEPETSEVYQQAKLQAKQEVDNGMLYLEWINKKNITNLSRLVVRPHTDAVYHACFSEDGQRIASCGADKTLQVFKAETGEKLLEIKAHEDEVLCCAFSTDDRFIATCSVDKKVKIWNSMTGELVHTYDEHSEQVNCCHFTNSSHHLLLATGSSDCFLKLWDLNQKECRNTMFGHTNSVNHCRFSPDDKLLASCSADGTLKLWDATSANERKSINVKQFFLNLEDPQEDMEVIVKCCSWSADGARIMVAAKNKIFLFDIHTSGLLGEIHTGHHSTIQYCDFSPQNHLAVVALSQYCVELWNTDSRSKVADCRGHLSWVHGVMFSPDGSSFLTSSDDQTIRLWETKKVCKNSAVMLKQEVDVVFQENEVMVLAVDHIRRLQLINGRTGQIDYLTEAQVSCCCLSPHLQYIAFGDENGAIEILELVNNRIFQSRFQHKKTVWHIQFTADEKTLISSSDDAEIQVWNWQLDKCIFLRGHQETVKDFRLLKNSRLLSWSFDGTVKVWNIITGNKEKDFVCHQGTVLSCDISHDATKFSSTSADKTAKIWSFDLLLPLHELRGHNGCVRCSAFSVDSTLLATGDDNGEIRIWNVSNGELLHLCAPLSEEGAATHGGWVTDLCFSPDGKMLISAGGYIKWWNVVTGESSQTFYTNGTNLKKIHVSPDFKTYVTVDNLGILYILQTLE

Clc1ccc(C(c2ccc(Cl)cc2)n2cc[n+](CC(OCc3ccc(Cl)cc3Cl)c3ccc(Cl)cc3Cl)c2)cc1 (stereo not drawn) [CALMIDAZOLIUM CHLORIDE]
active: IC50 [1] 10.9 µM | AC50 [2] 7.07 µM | IC50 [3] 12.7 µM
